Reference: patent US20140377379A1, “METHOD FOR PROGNOSING THE AGE-AT-ONSET OF HUNTINGTON'S DISEASE” (Institut National de la Sante et de la Recherche Medicale …, priority 2010, published 2014)
“Also recorded” adds a separate entry of the source.

Key:
[1] = tested on: mutant htt; assay: Western blot of mutant htt in 109Q/109Q cells; format: cell-based, mouse
Method: (§1) Cell death assays for HdhQ111 mouse striatal cells expressing full-length htt with either wild-type (7Q/7Q) or mutant (109Q/109Q) polyglutamines were performed as previously described (Arango et al. 2006 Neurosci 26:4649-59). jetPEI was used for transfection with cDNA and jetSI-ENDO for siRNA assays as indicated by the manufacturer (PolyPlus Transfection). siRNA oligos were obtained from Clontech (β-catenin) and QIAGEN (SIRT1, SIRT2, SIRT3, UCP2 and UCP4). […] Cells were subjected to DAPI staining and cell death was scored 48 hours after cell transfection by counting picnotic versus normal nuclei in DAPI- and JetSI-ENDO-positive cells. Cytoplasmic and nuclear proteins were extracted as previously described (Arango et al. 2006 Neurosci 26:4649-59), separated by SDS-PAGE and analyzed by Western blotting using the following primary antibodies: Mouse anti-SIRT1 (Upstate, 1:1000), mouse anti-SIRT2 (Santa Cruz, 1:100), rabbit anti-SIRT-3 (Abgent, 1:100), rabbit-anti-β-catenin (Cell Signaling, 1:5000), mouse anti-FoxO3a (Cell Signaling, 1:1000), goat-anti-UCP2 (Santa Cruz, dilution), rabbit-anti-UCP4 (Abcam, 1:25), mouse anti-actin (Invitrogen, 1:2000), anti-htt (4C8, Chemicon, 1:5000). […] Proteins were detected using ECL+ and evaluated by densitometry. Quantitative Real-Time PCR experiments were performed as described in the Supporting Information/Materials and Methods. […]

[2] = tested on: 109Q/109Q striatal cells; assay: Cell death assay in mutant htt striatal cells from HdhQ111 mice; format: cell-based, mouse
Method: Cell death assays for HdhQ111 mouse striatal cells expressing full-length htt with either wild-type (7Q/7Q) or mutant (109Q/109Q) polyglutamines were performed as previously described (Arango et al. 2006 Neurosci 26:4649-59). jetPEI was used for transfection with cDNA and jetSI-ENDO for siRNA assays as indicated by the manufacturer (PolyPlus Transfection). siRNA oligos were obtained from Clontech (β-catenin) and QIAGEN (SIRT1, SIRT2, SIRT3, UCP2 and UCP4). Mixes of 3-4 different siRNA sequences per gene (25 or 33 nM) were systematically tested for modulation of cell survival and siRNA target gene expression, followed by the evaluation of individual siRNA sequences at optimal concentration (25-100 nM). […] The siRNA sequences shown in figures are as it follows: β-catenin siRNA, 5′-[…]-3′ (100 nM) (SEQ ID NO:41); FoxO3a siRNA 5′-[…]-3′ (SEQ ID NO:42) (100 nM); SIRT1 siRNA, 5′-[…]-3′ (SEQ ID NO:43) (25 nM); SIRT2 siRNA 5′-[…]-3′ (SEQ ID NO:44) (25 nM); SIRT3 siRNA, 5′-[…]-3′ (SEQ ID NO:45) (25 nM); UCP2 siRNA, 5′-[…]-3′ (SEQ ID NO:46) (33 nM), and UCP4 siRNA sequences 5′-[…]-3′ (SEQ ID NO:47) (33 nM). The constructs encoding an active variant of SIRT1 (2 kb cDNA) lacking an internal segment in the N-terminus and full length FoxO3a were pcDNA3.1-sirt1-Flag and pcDNA3.1-FoxO3a-HA, respectively. Cells were subjected to DAPI staining and cell death was scored 48 hours after cell transfection by counting picnotic versus normal nuclei in DAPI- and JetSI-ENDO-positive cells. Cytoplasmic and nuclear proteins were extracted as previously described (Arango et al. 2006 Neurosci 26:4649-59), separated by SDS-PAGE and analyzed by Western blotting using the following primary antibodies: Mouse anti-SIRT1 (Upstate, 1:1000), mouse anti-SIRT2 (Santa Cruz, 1:100), rabbit anti-SIRT-3 (Abgent, 1:100), rabbit-anti-β-catenin (Cell Signaling, 1:5000), mouse anti-FoxO3a (Cell Signaling, 1:1000), goat-anti-UCP2 (Santa Cruz, dilution), rabbit-anti-UCP4 (Abcam, 1:25), mouse anti-actin (Invitrogen, 1:2000), anti-htt (4C8, Chemicon, 1:5000). Secondary antibodies were goat-anti-mouse IgG HRP-conjugated and goat-anti-rabbit IgG HRP-conjugated (Biorad). Proteins were detected using ECL+ and evaluated by densitometry. Quantitative Real-Time PCR experiments were performed as described in the Supporting Information/Materials and Methods. Chemicals were either purchased from Sigma (Resveratrol) and Calbiochem (B10, LiCl).

[3] = tested on: UCP4 mRNA; assay: Quantitative RT-PCR of UCP4 mRNA in striatal cells; format: cell-based, mouse; conditions: for UCP4 mRNA levels: 109Q/109Q cells, qRT-PCR
Method: as §1, with “UCP4). Mixes of 3-4 different siRNA sequences per gene (25 or 33 nM) were systematically tested for modulation of cell survival and siRNA target gene expression, followed by the evaluation of individual siRNA sequences at optimal concentration (25-100 nM).” for “UCP4).”
Quantitative RT-PCR was performed on RNA extracted from 109Q/109Q mouse striatal cells, transfected with the appropriate siRNAs, to assess gene silencing efficiency. […]

[4] = tested on: 7Q/7Q striatal cells; assay: Cell death assay in normal htt striatal cells; format: cell-based, mouse; conditions: siRNA
Method: as §1

[5] = tested on: β-catenin; assay: Western blot of β-catenin in 109Q/109Q cells; format: cell-based, mouse
Method: as §1

[6] = tested on: UCP2 mRNA; assay: Quantitative RT-PCR of UCP2 mRNA in striatal cells; format: cell-based, mouse
Method: as §1

[7] = tested on: reactive oxygen species (ROS) levels in striatal cells; assay: ROS levels in striatal cells; format: cell-based, mouse
[8] = tested on: 128Q nematodes (expanded polyQ in touch receptor neurons); assay: Touch test (response to light touch at the tail) in 128Q nematodes; format: in vivo, C. elegans
Method: (§2) The wild-type strain of C. elegans used was Bristol N2. Standard methods of culturing and handling worms were used. All strains were scored at 20° C. Touch tests, scoring of PLM cell processes, drug response assays and quantitative Real-Time PCR were performed as previously described (Parker et al. 2005 Nat Genet. 37:349-350). Western analysis was performed using standard protocols and htt fusion proteins detected with the GFP antibody ab6556 (Abcam). Mutations and transgenes used in this study were: aak-2(ok524), bar-1(ga80), cfz-2(ok 1201), cst-1(tm1900), ctl-2(ok1137), cwn-1(ok546), cwn-2(ok895), daf-2(e1370), daf-16(mgD150), dhc-1(or195), dnc-1(or 404), egl-20(n585), ftt-2(n4426), geln3[sir-2.1(+)], igls1[mec-3::htt57Q128::CFP;mec-7::YFP;lin-15(+)], igls245[mec-3::htt57Q19::CFP; mec-7::YFP; lin-15(+)]. lin-17(n671), lin-44(n1792), mig-1(e1787), pop-1(q624), rrf-3(pk1426), sir-2.1(ok434), sod-3(gk235) and ucp-4(ok 195). […]
(§3) Touch tests involved scoring for the response to light touch at the tail by using a fine hair. […] The responses were recorded for every animal such that, for example, 3 responses out of 10 at the tail is given as 30% responsiveness, and the mean values for responsiveness were retained for comparison of nematode groups.

[9] = tested on: PLM cells of 128Q animals; assay: Scoring of PLM cell processes (axonal swelling); format: in vivo, C. elegans; conditions: versus DMSO controls
Method: as §2, with “195). All strains were obtained from the C. elegans Genetics Center (University of Minnesota, Minneapolis) except for cst-1(tm1900) which was from the National Bioresource Project for the Nematode (Tokyo, Japan). For strain construction with polyQ transgenes, mutants were verified by visible phenotypes, PCR analysis for deletion mutants, sequencing for point mutations or a combination thereof.” for “195).”

[10] = tested on: 19Q nematodes (normal polyQ); assay: Touch test in 19Q control nematodes; format: in vivo, C. elegans
Method: as §2, §3

[11] = siRNA 25-100 nM, cell death scored 48 hours after transfection, versus untreated

UCP4 siRNA: siRNA 5′-GCCTATAGTATGTGCTTAATT-3′ (SEQ ID NO:47) (33 nM) (listed as DNA, chemistry not given here)
mutant htt expression [1]: unchanged; also recorded: no change in htt expression | survival of 109Q/109Q cells [2, 11]: increased the survival of 109Q/109Q cells | UCP4 mRNA levels [3]: decreased UCP4 mRNA levels

β-catenin siRNA: siRNA 5′-GGCTTTTCCCAGTCCTTCATT-3′ (100 nM) (SEQ ID NO:41) (listed as DNA, chemistry not given here)
mutant htt expression [1]: unchanged; also recorded: no change in htt expression | survival of normal htt (7Q/7Q) cells [4]: no effects in normal htt cells | β-catenin expression [5]: β-catenin was reduced | survival of 109Q/109Q cells [2, 11]: reduced the survival of mutant htt striatal cells; also recorded: decreased the survival of 109Q/109Q cells | UCP2 expression ([6]; 7Q/7Q cells): No effect | UCP2 mRNA levels ([6]; 109Q/109Q cells, qRT-PCR): downregulated; also recorded: decreased UCP2 mRNA levels | UCP4 expression ([3]; 7Q/7Q cells): No effect | UCP4 mRNA levels [3]: upregulated | ROS levels ([7]; mutant htt (109Q/109Q) striatal cells, versus untreated): increased reactive oxygen species (ROS) levels in mutant htt striatal cells | ROS levels ([7]; normal htt (7Q/7Q) cells): no effects in normal htt cells

O=C1Nc2cc(Br)ccc2/C1=C1/Nc2ccccc2/C1=N\O [BIO, 6-bromoindirubin-3′-oxime]
survival effect of BIO combined with β-catenin siRNA ([2]; BIO 0.5 μM + β-catenin siRNA, 109Q/109Q cells): lost by β-catenin siRNA | survival of 109Q/109Q cells ([2]; BIO 0.5 μM, cell death induced by serum deprivation, versus DMSO controls): enhanced the survival of 109Q/109Q cells | neuronal dysfunction / expanded polyQ neurotoxicity (loss of response to touch) ([8]; 128Q nematodes, versus DMSO or untreated […]Q controls): rescues expanded polyQ neurotoxicity; also recorded: reduced neuronal dysfunction in 1280 animals | BIO rescuing activity in 128Q animals mutant for FoxO network genes ([8]; 128Q, mutants for daf-16, sir-2.1, bar-1 and ucp-4): lost and in a bar-1 dependent manner and no effect in mutants for sir-2.1, daf-16 and ucp-4 | axonal swelling (AxSw) [9]: reduced AxSw in PLM cells of 128Q animals; also recorded: reduced axonal swelling | effect on normal polyQ (19Q) controls, touch response [10]: no effect on 19Q controls

[Cl-].[Li+] [Lithium chloride]
effect on normal polyQ (19Q) controls, touch response [10]: no effects on 19Q controls
